Reference: publication PMC4405350, “From Broad-Spectrum Biocides to Quorum Sensing Disruptors and Mussel Repellents: Antifouling Profile of Alkyl Triphenylphosphonium Salts” (PLoS ONE, 2015)
Where two headings read alike, the source gives them in different places.

Experiments:
[1] = tested on: violacein production of C. violaceum CVO26; experiment: Quorum sensing bioassay: violacein production; assay type: cell-based, Chromobacterium violaceum; settings: Chromobacterium violaceum, 18 h, read-out: IC50 (Violacein inhibition)
Protocol: (§1) The reporter strain C. violaceum CVO26 (CECT 5999) was used to screen the ability of the products to interfere with violacein production, a QS-regulated phenotype. C. violaceum CVO26 is a mini-Tn5 mutant that depends on an exogenous source of autoinducer (AI) (N-hexanoyl homoserine lactone, HHL) for violacein production. C. violaceum CVO26 was cultured in LB broth (Sigma-Aldrich) supplemented with 25 μg ml^-1 kanamycin. Inocula were prepared by dilution (1:100) of an overnight culture of the reporter strain [49]. One hundred microliters of inoculum with HHL (Sigma-Aldrich, 6 μM) or without the AI were added to 96-well plates containing 100 μl of the appropriate dilutions of the test products in LB. Thus, two sets of plates were prepared. One set of plates (without HHL) was used to evaluate the effect of the products on bacterial growth, whereas the other set of plates (with HHL) was used to evaluate their effect on violacein production. Both sets of plates were incubated at 30 °C with agitation (150 rpm) for 18 h.
(§2) Growth inhibition was quantified in the first batch of plates by re-suspending bacterial pellets and measuring the OD625. From the second batch of plates violacein was extracted and quantified. Briefly, the plates were dried overnight (60 °C) and violacein was re-solubilized by the addition of 200 μl of DMSO. The plates were shaken for 3 h and then the OD590 was determined.
To evaluate the effect of the alkyl triphenylphosphonium salts on QS-regulated phenotypes, an initial screening at the cut-off concentration of 100 μM was conducted with C. violaceum CVO26. The QS model of C. violaceum is relatively simple and consists of an acyl-homoserine lactone synthase (CviI) that produces the AI molecule N-hexanoyl homoserine lactone (HHL, strain ATCC 31532), or N-3-hydroxydecanoyl homoserine lactone (strain ATCC 12472) which is recognized by the cytoplasmic receptor CviR (Fig 4). The reporter strain CVO26 is a CviI::mini-Tn5 mutant of strain ATCC 31532 and thus recognizes HHL. CviR is a DNA-binding transcription factor that activates the expression of the genes encoding the production of violacein, the characteristic purple alkaloid that gives name to the species.
(§3) Indeed, the inhibitions observed in violacein production for long alkyl chains (10–18, 20) were clearly correlated to the biocidal effect exerted by these compounds, with ‘therapeutic ratios’ (IC50 for growth inhibition/IC50 for violacein inhibition) around 1, in general (Table 2). Note that, as the length of the hydrocarbon chain becomes shorter, this ratio increased (8–9). […] To evaluate these compounds in further detail, […] stock solutions were prepared […] to avoid the use of high concentrations of DMSO in the bioassays. […] Serial two-fold dilutions (500–3.9 μM) were assayed. Consequently, the highest amount of DMSO used in the assay was 0.25% (v/v). […] Growth inhibitory effects are only observed at 500 μM, particularly for compound 7 (Fig 6D).

Artemia salina nauplii = experiment: in vivo; settings: instar I nauplii, 24 h, 28 °C
Protocol: (§4) All the biological assays were run by triplicate. […] For the active products, serial dilutions were performed to calculate the half-maximal inhibitory concentrations (IC50) or the minimal inhibitory concentrations (MIC). Unless otherwise stated, the test concentrations were 100, 50, 25, 10, 5, 2.5, 1, 0.5 and 0.1 μM. Dose-response curves were adjusted with GraphPad Prism 5 software using a four-parameter non-linear regression model.
Artemia salina cysts (INVE Aquaculture, Ghent, Belgium) were hatched in brackish water (30 ‰ salinity) at 28 °C with aeration and under constant light. Newly hatched instar I nauplii were harvested for bioassays. Tests were conducted in 96-well plates (15±5 nauplii per well, test volume = 200 μl). The number of dead and alive individuals was recorded after 24 h of incubation at 28 °C and 24-hour photoperiod.

C. violaceum CVO26 = C. violaceum CVO26 growth inhibition (OD625); assay type: cell-based; settings: Chromobacterium violaceum, CVO26, 18 h, read-out: IC50 (Growth inhibition)
Protocol: as §1, §2, §3

Fusarium sp. = experiment: Marine-derived fungi growth inhibition (OD405); assay type: cell-based; settings: Fusarium, 120 h, 5 days, 26 °C
Protocol: All the biological assays were run by triplicate.
Three strains of marine-derived fungi were kindly provided by Dr. Á. Trigos (University of Veracruz, Mexico). The strains were isolated from reef organisms collected from the Veracruz Reef System and identified as Aspergillus sp., Fusarium sp. and Alternaria sp..
Fungal strains were cultured in Potato-Dextrose Agar (PDA) supplemented with filtered seawater (FSW) (50% v/v) at 26 °C for 5 days prior to experiments. […] Briefly, fungal inocula were prepared by addition of 5 ml of sterile saline solution to the cultures. Gently swabbing released conidia. […] The plates were incubated for 5 days at 26 °C. The calculation of the half-maximal inhibitory concentrations (IC50) was performed using OD405 as endpoint.

Amphora sp. = experiment: Benthic diatom growth inhibition (chlorophyll-a); assay type: cell-based; settings: 120 h, read-out: IC50 Amphora sp.
Protocol: as §4
(§5) Five strains of benthic diatoms, Nitszchia sp. […] The Nitzschia and Navicula strains were purchased from the Spanish Bank of Algae (Marine Biotechnology Center, University of Las Palmas de Gran Canaria). The other three strains were kindly provided by Dr. G. Courtois (University of Las Palmas de Gran Canaria). Diatoms were cultured at 19±1 °C in Erlenmeyer flaks (250 ml) containing 150 ml of Guillard’s F/2 medium, and subjected to a photoperiod of 18:6. Tests were run in 48-well plates. Inocula were prepared by adjusting diatom concentration to 2–4 × 10^6 cells ml^-1 using a Neubauer chamber. Test products were dissolved in F/2 medium (500 μl) to which diatom inocula (500 μl) were added. Thus, the final assay volume was 1 ml and the starting cell densities were ca. 1–2 x 10^6 diatoms ml^-1. Plates were incubated under the abovementioned conditions for 5 days and then chlorophyll-a (Chla) was quantified.
(§6) In order to extract Chla, the content of each well was transferred to a microcentrifuge tube and centrifuged at 10,000 rpm for 10 min. The supernatants were discarded and 200 μl of DMSO were added to the pellets. The tubes were incubated at 65 °C for 2 h in total darkness and vortexed every 30 min. Then, the content of each tube was transferred to a 96-well plate and the amount of Chla was determined spectrophotometrically. Path length correction factor for the DMSO extracts was determined.

Nitzschia sp. = experiment: Benthic diatom growth inhibition (chlorophyll-a); assay type: cell-based; settings: 120 h, read-out: IC50 Nitzschia sp.
Protocol: as §4, §5, §6

[2] = tested on: Phaeodactylum tricornutum; experiment: Benthic diatom growth inhibition (chlorophyll-a); assay type: cell-based; settings: Phaeodactylum tricornutum, 120 h, read-out: IC50 P. tricornutum
Protocol: as §4, §5, §6

[3] = tested on: Navicula cf. salinicola BEA 0055; experiment: Benthic diatom growth inhibition (chlorophyll-a); assay type: cell-based; settings: 120 h, read-out: IC50 Navicula cf. salinicola
Protocol: as §4, §5, §6

Cylindrotheca sp. = experiment: Benthic diatom growth inhibition (chlorophyll-a); assay type: cell-based; settings: 120 h, read-out: IC50 Cylindrotheca sp.
Protocol: as §4, §5, §6

With `CCCCCCCCCCCC[P+](c1ccccc1)(c1ccccc1)c1ccccc1` [Compound 12] the IC50 [1] was 6.6 µM, the “IC50 A. salina (LC50)” value (Artemia salina nauplii) was 2.4 µM and the IC50 (C. violaceum CVO26) was 10.3 µM. For the same compound, the IC50 (Fusarium sp.) was 6.6 µM, the IC50 (Amphora sp.) was 4.8 µM and the IC50 (Nitzschia sp.) was 2.2 µM. The IC50 [2] was 1.2 µM, the IC50 [3] was 1.3 µM and the IC50 (Cylindrotheca sp.) was 1 µM.
With `CCCCCCCCCCCCC[P+](c1ccccc1)(c1ccccc1)c1ccccc1` [Compound 13] the IC50 [1] was 3.9 µM, the “IC50 A. salina (LC50)” value (Artemia salina nauplii) was 0.9 µM and the IC50 (C. violaceum CVO26) was 3.2 µM. For the same compound, the IC50 (Fusarium sp.) was 6.5 µM, the IC50 (Amphora sp.; growth, 5 days, chlorophyll-a) was 4.5 µM and the IC50 (Nitzschia sp.; growth, 5 days, chlorophyll-a) was 2.2 µM. The IC50 ([2]; growth, 5 days, chlorophyll-a) was 1 µM, the IC50 ([3]; growth, 5 days, chlorophyll-a) was 1.8 µM and the IC50 (Cylindrotheca sp.; growth, 5 days, chlorophyll-a) was 1.7 µM.
For `CCCCCCCCCCCCCC[P+](c1ccccc1)(c1ccccc1)c1ccccc1` [Compound 14], the IC50 [1] was 4.6 µM, the “IC50 A. salina (LC50)” value (Artemia salina nauplii) was 1.8 µM and the IC50 (C. violaceum CVO26) was 2.3 µM. For the same compound, the IC50 (Fusarium sp.) was 5.1 µM, the IC50 (Amphora sp.; growth, 5 days, chlorophyll-a) was 2.1 µM and the IC50 (Nitzschia sp.; growth, 5 days, chlorophyll-a) was 3.5 µM. The IC50 ([2]; growth, 5 days, chlorophyll-a) was 1.5 µM, the IC50 ([3]; growth, 5 days, chlorophyll-a) was 1.2 µM and the IC50 (Cylindrotheca sp.; growth, 5 days, chlorophyll-a) was 4.5 µM.
With `CCCCCCCCCCCCCCC[P+](c1ccccc1)(c1ccccc1)c1ccccc1` [Compound 15] the IC50 [1] was 1.2 µM, the “IC50 A. salina (LC50)” value (Artemia salina nauplii) was 2.8 µM and the IC50 (C. violaceum CVO26) was 2.6 µM. The IC50 (Fusarium sp.) was 4.2 µM, the IC50 (Amphora sp.; growth, 5 days, chlorophyll-a) was 3.1 µM and the IC50 (Nitzschia sp.; growth, 5 days, chlorophyll-a) was 3.6 µM. For the same compound, the IC50 ([2]; growth, 5 days, chlorophyll-a) was 1.1 µM, the IC50 ([3]; growth, 5 days, chlorophyll-a) was 2.8 µM and the IC50 (Cylindrotheca sp.; growth, 5 days, chlorophyll-a) was 2.2 µM.
With `CCCCCCCCCCCCCCCC[P+](c1ccccc1)(c1ccccc1)c1ccccc1` [Compound 16] the IC50 [1] was 4.2 µM, the “IC50 A. salina (LC50)” value (Artemia salina nauplii) was 1.8 µM and the IC50 (C. violaceum CVO26) was 3.2 µM. For the same compound, the IC50 (Fusarium sp.) was 9.3 µM, the IC50 (Amphora sp.; growth, 5 days, chlorophyll-a) was 2.6 µM and the IC50 (Nitzschia sp.; growth, 5 days, chlorophyll-a) was 4.9 µM. The IC50 ([2]; growth, 5 days, chlorophyll-a) was 1.3 µM, the IC50 ([3]; growth, 5 days, chlorophyll-a) was 1.3 µM and the IC50 (Cylindrotheca sp.; growth, 5 days, chlorophyll-a) was 4.7 µM.
For `CCCCCCCCCCCCCCCCCC[P+](c1ccccc1)(c1ccccc1)c1ccccc1` [Compound 17], the IC50 [1] was 7 µM, the “IC50 A. salina (LC50)” value (Artemia salina nauplii) was <0.5 µM and the IC50 (C. violaceum CVO26) was 7 µM. The IC50 (Fusarium sp.) was 8.8 µM, the IC50 (Amphora sp.; growth, 5 days, chlorophyll-a) was 4.2 µM and the IC50 (Nitzschia sp.; growth, 5 days, chlorophyll-a) was 7.6 µM. It also gave an IC50 ([2]; growth, 5 days, chlorophyll-a) of 7.4 µM, an IC50 ([3]; growth, 5 days, chlorophyll-a) of 1.2 µM and an IC50 (Cylindrotheca sp.; growth, 5 days, chlorophyll-a) of 8 µM.
With `CCCCCCCCCCCCCCCCCCC[P+](c1ccccc1)(c1ccccc1)c1ccccc1` [Compound 18] the IC50 [1] was 35.2 µM, the “IC50 A. salina (LC50)” value (Artemia salina nauplii) was <0.5 µM and the IC50 (C. violaceum CVO26) was 40.1 µM. The IC50 (Fusarium sp.) was 7.3 µM, the IC50 (Amphora sp.; growth, 5 days, chlorophyll-a) was 3.4 µM and the IC50 (Nitzschia sp.; growth, 5 days, chlorophyll-a) was 4.8 µM. It also gave an IC50 ([2]; growth, 5 days, chlorophyll-a) of 16.9 µM, an IC50 ([3]; growth, 5 days, chlorophyll-a) of 0.8 µM and an IC50 (Cylindrotheca sp.; growth, 5 days, chlorophyll-a) of 6.9 µM.
`c1ccc([P+](CCCCCCCCCCCC[P+](c2ccccc2)(c2ccccc2)c2ccccc2)(c2ccccc2)c2ccccc2)cc1` [Compound 20] was tested, and the IC50 [1] was 16.7 µM, the “IC50 A. salina (LC50)” value (Artemia salina nauplii) was 3.0 µM and the IC50 (C. violaceum CVO26) was 12.8 µM. It also gave an IC50 (Fusarium sp.) of 5.6 µM, an IC50 (Amphora sp.; growth, 5 days, chlorophyll-a) of 1.6 µM and an IC50 (Nitzschia sp.; growth, 5 days, chlorophyll-a) of 2 µM. The IC50 ([2]; growth, 5 days, chlorophyll-a) was 1 µM, the IC50 ([3]; growth, 5 days, chlorophyll-a) was 0.6 µM and the IC50 (Cylindrotheca sp.; growth, 5 days, chlorophyll-a) was 1.3 µM.
